Values quoted from earlier work in US20050249795A1, “Gemcitabine compositions for better drug delivery” (NEOPHARM, INC., priority 2002, published 2005).
Structures can show the parent of a compound that is named as a salt.

Columns and labels:
[1] = tested on: CALU-6 human lung xenografts; details: in vivo, CALU-6 human lung xenograft
[2] = tested on: Lewis lung murine xenograft
NCI-H520 xenografts = details: in vivo, NCI-H520 xenograft
NCI-H460 xenografts = details: in vivo, NCI-H460 xenograft
[3] = tested on: CEM T lymphoblastoid cells
[4] = tested on: LX-1 human lung xenografts; details: in vivo, LX-1 human lung xenograft
[5] = in patients

Row | half-life [5] | Structure (SMILES) | activity in combination with cisplatin [1] | interaction with cisplatin [2] | activity in combination with cisplatin (NCI-H520 xenografts) | activity with cisplatin in vitro | activity in combination with cisplatin (NCI-H460 xenografts) | internucleosomal DNA fragmentation [3] | activity in combination with cisplatin [4]
1 |  | Nc1ccn([C@@H]2O[C@H](CO)[C@@H](O)C2(F)F)c(=O)n1 [Gemcitabine] | showed activity | synergistic | minimal activity | dose-dependent synergistic activity | minimal activity | induces internucleosomal DNA fragmentation | showed activity
2 | very short half-life | Nc1ccn([C@@H]2O[C@H](CO)[C@@H](O)C2(F)F)c(=O)n1 [Gemcitabine HCL, gemcitabine hydrochloride] |  |  |  |  |  |  | 
